Experimental data published in article PMC10770618, “A simple assay for inhibitors of mycobacterial oxidative phosphorylation” (The Journal of Biological Chemistry, 2023).
Read-outs that look alike come from different tables or passages of the source.

Target: T1, CIII2CIV2 (Complex III2IV2, cytochrome bcc-aa3 supercomplex) (Mycolicibacterium smegmatis, UniProt A0R052+I7GD61)
T1 construct: gene MSMEG_4263; CIII2CIV2 in IMVs from strain QcrB-3×FLAG (3×FLAG tag at the C terminus of the QcrB subunit); with other subunits of the CIII2CIV2 supercomplex
Assay: succinate-driven acidification of inverted membrane vesicles (ACMA fluorescence); no inhibition of ATP-driven acidification
Format: biochemical

Row | Structure (SMILES) | IC50 [nM] | IC50 (read-out: IC50) [nM]
1 | CCc1nc2ccc(Cl)cn2c1C(=O)NCc1ccc(N2CCC(c3ccc(OC(F)(F)F)cc3)CC2)cc1 [Q203, telacebec] | ~140 | 
2 | Cc1c(OCC(F)(F)F)ccnc1CSc1nc2ccccc2[nH]1 [LPZS, lansoprazole sulfide] |  | ~860
